How the values were obtained:
panel of 442 kinases [1] = biological target: T1, panel of 442 kinases (Homo sapiens, UniProt Q13237); format: binding; conditions: Compound Concentration 10 µM
T1 construct: purchased KINOMEscan
T1 sequence (Q13237 1-762): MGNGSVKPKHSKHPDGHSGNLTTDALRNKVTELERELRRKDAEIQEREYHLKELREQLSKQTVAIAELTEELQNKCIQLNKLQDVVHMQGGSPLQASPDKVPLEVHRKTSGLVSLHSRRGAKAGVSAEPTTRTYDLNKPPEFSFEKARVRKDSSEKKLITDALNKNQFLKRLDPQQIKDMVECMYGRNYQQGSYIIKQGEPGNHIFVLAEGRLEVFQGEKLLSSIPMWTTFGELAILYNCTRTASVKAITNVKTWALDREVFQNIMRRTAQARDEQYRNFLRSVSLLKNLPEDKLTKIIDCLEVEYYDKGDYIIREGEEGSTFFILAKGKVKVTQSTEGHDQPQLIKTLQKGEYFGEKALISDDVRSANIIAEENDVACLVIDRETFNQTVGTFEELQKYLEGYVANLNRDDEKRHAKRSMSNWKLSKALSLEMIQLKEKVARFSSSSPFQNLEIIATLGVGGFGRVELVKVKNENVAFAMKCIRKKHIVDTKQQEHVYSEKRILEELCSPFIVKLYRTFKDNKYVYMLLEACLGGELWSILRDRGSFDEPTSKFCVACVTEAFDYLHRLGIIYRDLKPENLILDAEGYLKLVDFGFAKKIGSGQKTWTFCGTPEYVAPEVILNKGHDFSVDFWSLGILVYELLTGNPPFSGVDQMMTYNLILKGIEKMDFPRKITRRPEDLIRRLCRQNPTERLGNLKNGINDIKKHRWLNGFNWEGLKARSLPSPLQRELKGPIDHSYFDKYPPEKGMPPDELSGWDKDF
From the text: (§1) We assessed the selectivity of members of this scaffold using the KINOMEscan methodology across a near comprehensive panel of 442 kinases [[18,27]].

panel of 442 kinases [2] = biological target: T2, panel of 442 kinases (Homo sapiens, UniProt Q9Y6E0); format: binding; conditions: Compound Concentration 10 µM
T2 construct: purchased KINOMEscan
T2 sequence (Q9Y6E0 whole entry): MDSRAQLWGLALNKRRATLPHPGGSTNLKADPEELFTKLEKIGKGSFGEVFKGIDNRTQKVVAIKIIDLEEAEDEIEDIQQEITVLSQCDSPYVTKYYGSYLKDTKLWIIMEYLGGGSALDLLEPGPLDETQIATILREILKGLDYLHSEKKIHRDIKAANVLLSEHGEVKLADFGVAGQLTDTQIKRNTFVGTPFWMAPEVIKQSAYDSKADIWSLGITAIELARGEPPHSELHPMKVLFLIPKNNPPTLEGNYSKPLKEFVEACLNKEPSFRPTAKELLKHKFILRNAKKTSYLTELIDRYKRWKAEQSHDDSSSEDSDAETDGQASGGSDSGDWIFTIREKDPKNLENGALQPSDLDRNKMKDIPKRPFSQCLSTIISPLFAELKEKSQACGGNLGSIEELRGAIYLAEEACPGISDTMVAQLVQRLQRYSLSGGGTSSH
From the text: as §1

SMILES: COc1cc(C(=O)N2CCC(N3CCN(C)CC3)CC2)ccc1Nc1ncc2c(n1)N(C)c1ccccc1C(=O)N2C [15 (LRRK2-IN-1)]
- KINOMEscan: PRKG2 (panel of 442 kinases [1]): 74
- KINOMEscan: MST3 (panel of 442 kinases [2]): 87

SMILES: COc1cc(C(=O)N2CCC(N3CCN(C)CC3)CC2)ccc1Nc1ncc2c(n1)N1CCc3cccc(c31)C(=O)N2C [Compound 24]
- KINOMEscan: PRKG2 (panel of 442 kinases [1]): 98
- KINOMEscan: MST3 (panel of 442 kinases [2]): 73

SMILES: COc1cc(C(=O)N2CCC(N3CCN(C)CC3)CC2)ccc1Nc1ncc2c(n1)N(C1CCCC1)c1ccccc1C(=O)N2C [Compound 25, 11-cyclopentyl-2-((2-methoxy-4-(4-(4-methylpiperazin-1-yl)piperidine-1-carbonyl)phenyl)amino)-5-methyl-5H-benzo[e]pyrimido[5,4-b][1,4]diazepin-6(11H)-one]
- KINOMEscan: PRKG2 (panel of 442 kinases [1]): 98
- KINOMEscan: MST3 (panel of 442 kinases [2]): 88

SMILES: CCOc1cc(C(=O)N2CCC(N3CCN(C)CC3)CC2)ccc1Nc1ncc2c(n1)N(C1CCCC1)c1ccccc1C(=O)N2C [Compound 26]
- KINOMEscan: PRKG2 (panel of 442 kinases [1]): 100
- KINOMEscan: MST3 (panel of 442 kinases [2]): 100
